According to PubChem BioAssay AID1918993 (Molecular Pharmacology Branch, DTP, NCI, 2023):

System: 233499-124-R-J3-PDC complex spheroid growth
Test: Anticancer human tumor 233499-124-R-J3-PDC patient-derived colon adenocarcinoma cell line growth inhibition [AhR]
Conditions: for IC50: curve of first compound; for viability, T/C: stronger effect = lower value
Outline: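 Complex tumor spheroids co-cultured with HUVEC and human MSC stroma; AhR antagonists tested in combination with standard-of-care and investigational agents. Top concentration at or near clinical Cmax (else 10 microM), half-log dilutions; growth expressed as percent test/control.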

[1] = second compound 0.1 µM, first compound 0.0316 µM
[2] = second compound 0.1 µM, first compound 0.1 µM
[3] = second compound 0.1 µM, first compound 0.316 µM
[4] = second compound 0.1 µM, first compound 1 µM
[5] = second compound 0.1 µM, first compound 3.16 µM
[6] = second compound 0.1 µM, first compound 10 µM
[7] = second compound 0.316 µM, first compound 0.0316 µM
[8] = second compound 0.316 µM, first compound 0.1 µM
[9] = second compound 0.316 µM, first compound 0.316 µM
[10] = second compound 0.316 µM, first compound 1 µM
[11] = second compound 0.316 µM, first compound 3.16 µM
[12] = second compound 0.316 µM, first compound 10 µM
[13] = second compound 1 µM, first compound 0.0316 µM
[14] = second compound 1 µM, first compound 0.1 µM
[15] = second compound 1 µM, first compound 0.316 µM
[16] = second compound 1 µM, first compound 1 µM
[17] = second compound 1 µM, first compound 3.16 µM
[18] = second compound 1 µM, first compound 10 µM
[19] = second compound 3.16 µM, first compound 0.0316 µM
[20] = second compound 3.16 µM, first compound 0.1 µM
[21] = second compound 3.16 µM, first compound 0.316 µM
[22] = second compound 3.16 µM, first compound 1 µM
[23] = second compound 3.16 µM, first compound 3.16 µM
[24] = second compound 3.16 µM, first compound 10 µM
[25] = second compound 10 µM, first compound 0.0316 µM
[26] = second compound 10 µM, first compound 0.1 µM
[27] = second compound 10 µM, first compound 0.316 µM
[28] = second compound 10 µM, first compound 1 µM
[29] = second compound 10 µM, first compound 3.16 µM
[30] = second compound 10 µM, first compound 10 µM
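Note: spheroids exposed to agents for seven days before reading.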

Compound | IC50 (second compound 0.1 µM) | IC50 (second compound 0.316 µM) | IC50 (second compound 1 µM) | IC50 (second compound 3.16 µM) | IC50 (second compound 10 µM) | viability, T/C [1] | viability, T/C [2] | viability, T/C [3] | viability, T/C [4] | viability, T/C [5] | viability, T/C [6] | viability, T/C [7] | viability, T/C [8] | viability, T/C [9] | viability, T/C [10] | viability, T/C [11] | viability, T/C [12] | viability, T/C [13] | viability, T/C [14] | viability, T/C [15] | further results
Nc1ccccc1NC(=O)c1ccc(CNC(=O)OCc2cccnc2)cc1 + Cc1ccccc1N=Nc1ccc(NC(=O)c2ccnn2C)c(C)c1 | 5.08 µM | 5.64 µM | 5.44 µM | 5.35 µM | 4.81 µM | 116% | 93.3% | 106% | 129% | 80% | 7.02% | 116% | 103% | 119% | 113% | 93% | 7.54% | 116% | 107% | 117% | viability, T/C [16]: 130%; viability, T/C [17]: 86.4%; viability, T/C [18]: 9.07%; viability, T/C [19]: 112%; viability, T/C [20]: 106%; viability, T/C [21]: 118%; viability, T/C [22]: 113%; viability, T/C [23]: 86.8%; viability, T/C [24]: 6.35%; viability, T/C [25]: 93.4%; viability, T/C [26]: 108%; viability, T/C [27]: 105%; viability, T/C [28]: 109%; viability, T/C [29]: 74.4%; viability, T/C [30]: 7.59%
O=C(C=Cc1cccc(S(=O)(=O)Nc2ccccc2)c1)NO + Cc1ccccc1N=Nc1ccc(NC(=O)c2ccnn2C)c(C)c1 | 6.62 µM | 5.96 µM | 6.36 µM | 5.56 µM | 4.22 µM | 98.3% | 97.5% | 110% | 139% | 127% | 14% | 95.2% | 103% | 127% | 126% | 104% | 5.9% | 110% | 102% | 116% | viability, T/C [16]: 126%; viability, T/C [17]: 111%; viability, T/C [18]: 10.7%; viability, T/C [19]: 102%; viability, T/C [20]: 102%; viability, T/C [21]: 105%; viability, T/C [22]: 129%; viability, T/C [23]: 89.6%; viability, T/C [24]: 9.1%; viability, T/C [25]: 94.4%; viability, T/C [26]: 101%; viability, T/C [27]: 98.5%; viability, T/C [28]: 94.1%; viability, T/C [29]: 65.4%; viability, T/C [30]: 3.82%
O=C(c1cc(Cc2n[nH]c(=O)c3ccccc23)ccc1F)N1CCN(C(=O)C2CC2)CC1 + Cc1ccccc1N=Nc1ccc(NC(=O)c2ccnn2C)c(C)c1 | > 10 µM | > 10 µM | > 10 µM | > 10 µM | > 10 µM | 106% | 109% | 89% | 117% | 114% | 112% | 106% | 99.9% | 89.6% | 93.5% | 92.7% | 106% | 99.7% | 106% | 98.1% | viability, T/C [16]: 106%; viability, T/C [17]: 110%; viability, T/C [18]: 111%; viability, T/C [19]: 100%; viability, T/C [20]: 106%; viability, T/C [21]: 92.8%; viability, T/C [22]: 100%; viability, T/C [23]: 89.3%; viability, T/C [24]: 92.8%; viability, T/C [25]: 106%; viability, T/C [26]: 107%; viability, T/C [27]: 110%; viability, T/C [28]: 111%; viability, T/C [29]: 98.9%; viability, T/C [30]: 101%
